From ChEMBL document CHEMBL1137511, “Identification of a series of novel derivatives as potent HCV inhibitors by a ligand-based virtual screening optimized procedure” (Bioorg Med Chem, 2007)
pIC50: −log10 of the molar value.

Experiment: Inhibition of HCV genotype 1 polymerase
Parameters: species or system Hepacivirus hominis

SMILES	pIC50
CC(C)CCn1c(=O)c(C2=NS(=O)(=O)c3cc(NS(=O)(=O)NCCc4ccccc4)ccc3N2)c(O)c2cccnc21	7.74
O=c1c(C2=NS(=O)(=O)c3ccccc3N2)c(O)c2ccccc2n1NCc1ccc(Br)cc1	4.98
O=c1c(C2=NS(=O)(=O)c3ccccc3N2)c(O)c2ccccc2n1NCc1cccc(Br)c1	5.98
CC(C)CCn1c(=O)c(C2=NS(=O)(=O)c3cc(NC(=O)C(F)(F)F)ccc3N2)c(O)c2cccnc21	6.04
CCCC(CCC)Nn1c(=O)c(C2=NS(=O)(=O)c3ccccc3N2)c(O)c2ccccc21	5.65
CC(C)CCn1c(=O)c(C2=NS(=O)(=O)c3cc(NS(=O)(=O)NC4CCCCC4)ccc3N2)c(O)c2cccnc21	7.17
NS(=O)(=O)Nc1ccc2c(c1)S(=O)(=O)N=C(c1c(O)c3cccnc3n(NC3CCC3)c1=O)N2	8.28
O=c1c(C2=NS(=O)(=O)c3ccccc3N2)c(O)c2ccccc2n1NCc1nccs1	4.45
CC(C)CCn1c(=O)c(C2=NS(=O)(=O)c3cc(OCC(N)=O)ccc3N2)c(O)c2cccnc21	7.34
CC(C)CCn1c(=O)c(C2=NS(=O)(=O)c3cc(NS(=O)(=O)Nc4ccc(C(=O)O)cc4)ccc3N2)c(O)c2cccnc21	7.70
COc1cccc(CNS(=O)(=O)Nc2ccc3c(c2)S(=O)(=O)N=C(c2c(O)c4cccnc4n(CCC(C)C)c2=O)N3)c1	7.82
CC(C)CCn1c(=O)c(C2=NS(=O)(=O)c3cc(NS(=O)(=O)NC(=O)OCCCl)ccc3N2)c(O)c2cccnc21	6.72
Cc1ccc2c(c1)S(=O)(=O)NC(c1c(O)c3cccnc3n(Cc3ccccc3)c1=O)=N2	4.59
CCCC(Nn1c(=O)c(C2=NS(=O)(=O)c3ccccc3N2)c(O)c2ccccc21)C(C)C (centres undefined)	5.19
CC(C)CCn1c(=O)c(C2=NS(=O)(=O)c3cc(NS(=O)(=O)NC(=O)OCCOCc4ccccc4)ccc3N2)c(O)c2cccnc21	7.02
O=c1c(C2=NS(=O)(=O)c3ccccc3N2)c(O)c2cccnc2n1Cc1ccccc1	5.24
CC(C)CCn1c(=O)c(C2=NS(=O)(=O)c3cc(NS(=O)(=O)NC4CCNCC4)ccc3N2)c(O)c2cccnc21	7.49
O=c1c(C2=NS(=O)(=O)c3ccccc3N2)c(O)c2ccccc2n1NCc1ccco1	5.49
COCCOC(=O)NS(=O)(=O)Nc1ccc2c(c1)S(=O)(=O)NC(c1c(O)c3cccnc3n(CCC(C)C)c1=O)=N2	7.06
O=c1c(C2=NS(=O)(=O)c3ccccc3N2)c(O)c2ccccc2n1NC1CCCCC1	6.45
CC(C)CCn1c(=O)c(C2=NS(=O)(=O)c3cc(NS(=O)(=O)c4ccccc4)ccc3N2)c(O)c2cccnc21	7.39

SMILES	pIC50
CC(C)Nn1c(=O)c(C2=NS(=O)(=O)c3ccccc3N2)c(O)c2ccccc21	5.20
CC(C)CCn1c(=O)c(C2=NS(=O)(=O)c3cc(NS(=O)(=O)NCc4ccccc4)ccc3N2)c(O)c2cccnc21	8.26
CC(C)CCn1c(=O)c(C2=NS(=O)(=O)c3cc(OCCN)ccc3N2)c(O)c2cccnc21	3.20
CC(C)CCNn1c(=O)c(C2=NS(=O)(=O)c3ccccc3N2)c(O)c2ccccc21	6.20
CC(C)CCn1c(=O)c(C2=NS(=O)(=O)c3cc(NS(=O)(=O)NC(=O)OCCN)ccc3N2)c(O)c2cccnc21	7.68
CCCCS(=O)(=O)Nc1ccc2c(c1)S(=O)(=O)NC(c1c(O)c3cccnc3n(CCC(C)C)c1=O)=N2	7.66
O=c1c(C2=NS(=O)(=O)c3ccccc3N2)c(O)c2ccccc2n1NCC1=CCOC=C1	5.33
CC(C)CCn1c(=O)c(C2=NS(=O)(=O)c3cc(NS(=O)(=O)NC(=O)OCCC#N)ccc3N2)c(O)c2cccnc21	7.46
CC(C)CCn1c(=O)c(C2=NS(=O)(=O)c3cc(O)ccc3N2)c(O)c2cccnc21	6.41
COc1cccc2c1NC(c1c(O)c3cccnc3n(Cc3ccccc3)c1=O)=NS2(=O)=O	4.74
CCCC(CC)Nn1c(=O)c(C2=NS(=O)(=O)c3ccccc3N2)c(O)c2ccccc21 (centres undefined)	5.72
Cc1ccsc1CNn1c(=O)c(C2=NS(=O)(=O)c3ccccc3N2)c(O)c2ccccc21	4.82
CC(C)CCn1c(=O)c(C2=NS(=O)(=O)c3cc(NS(=O)(=O)C(C)C)ccc3N2)c(O)c2cccnc21	8.10
O=c1c(C2=NS(=O)(=O)c3ccccc3N2)c(O)c2ccccc2n1NCc1cccs1	5.63
Cc1cccc(CNn2c(=O)c(C3=NS(=O)(=O)c4ccccc4N3)c(O)c3ccccc32)c1	5.09
CC(C)CCn1c(=O)c(C2=NS(=O)(=O)c3cc(N)ccc3N2)c(O)c2cccnc21	6.51
CCOC(=O)c1cccc(NS(=O)(=O)Nc2ccc3c(c2)S(=O)(=O)N=C(c2c(O)c4cccnc4n(CCC(C)C)c2=O)N3)c1	6.88
CC(C)CCn1c(=O)c(C2=NS(=O)(=O)c3ccccc3N2)c(O)c2cccnc21	6.09
CC(C)CCn1c(=O)c(C2=NS(=O)(=O)c3cc(NS(N)(=O)=O)ccc3N2)c(O)c2cccnc21	8.05
CC(C)CCn1c(=O)c(C2=NS(=O)(=O)c3cc(NS(=O)(=O)Nc4ccc(C(N)=O)cc4)ccc3N2)c(O)c2cccnc21	7.74
CNC(=O)c1ccc(NS(=O)(=O)Nc2ccc3c(c2)S(=O)(=O)N=C(c2c(O)c4cccnc4n(CCC(C)C)c2=O)N3)cc1	7.37

SMILES	pIC50
CC(C)CCn1c(=O)c(C2=NS(=O)(=O)c3cc(NS(=O)(=O)NCCC(N)=O)ccc3N2)c(O)c2cccnc21	7.70
CC(C)CCn1c(=O)c(C2=NS(=O)(=O)c3cc(NS(=O)(=O)Nc4cccc(C(=O)O)c4)ccc3N2)c(O)c2cccnc21	6.94
COc1cccc2c1NC(c1c(O)c3cccnc3n(CCC(C)C)c1=O)=NS2(=O)=O	4.75
CC(C)CCn1c(=O)c(C2=NS(=O)(=O)c3cc(NS(=O)(=O)N4CCCCC4)ccc3N2)c(O)c2cccnc21	7.29
Cc1ccccc1CNn1c(=O)c(C2=NS(=O)(=O)c3ccccc3N2)c(O)c2ccccc21	5.21
CNC(=O)COc1ccc2c(c1)S(=O)(=O)NC(c1c(O)c3cccnc3n(CCC(C)C)c1=O)=N2	6.74
O=c1c(C2=NS(=O)(=O)c3cccc(O)c3N2)c(O)c2cccnc2n1Cc1ccccc1	5.08
COc1ccccc1CNS(=O)(=O)Nc1ccc2c(c1)S(=O)(=O)N=C(c1c(O)c3cccnc3n(CCC(C)C)c1=O)N2	7.24
CCCCCNn1c(=O)c(C2=NS(=O)(=O)c3ccccc3N2)c(O)c2ccccc21	6.03
CC(C)CNn1c(=O)c(C2=NS(=O)(=O)c3ccccc3N2)c(O)c2ccccc21	6.03
CC(C)CCn1c(=O)c(C2=NS(=O)(=O)c3cc(NS(=O)(=O)N4CCC4)ccc3N2)c(O)c2cccnc21	7.62
CCC(CC)Nn1c(=O)c(C2=NS(=O)(=O)c3ccccc3N2)c(O)c2ccccc21	5.61
CC(C)(C)CCNn1c(=O)c(C2=NS(=O)(=O)c3ccccc3N2)c(O)c2ccccc21	6.39
CC(Nn1c(=O)c(C2=NS(=O)(=O)c3ccccc3N2)c(O)c2ccccc21)c1ccccc1 (centres undefined)	4.78
COC(=O)c1ccccc1NS(=O)(=O)Nc1ccc2c(c1)S(=O)(=O)N=C(c1c(O)c3cccnc3n(CCC(C)C)c1=O)N2	6.89
COC(=O)c1ccc(NS(=O)(=O)Nc2ccc3c(c2)S(=O)(=O)N=C(c2c(O)c4cccnc4n(CCC(C)C)c2=O)N3)cc1	7.32
COc1ccc2c(c1)S(=O)(=O)NC(c1c(O)c3cccnc3n(Cc3ccccc3)c1=O)=N2	5.08
CCOC(=O)COC(=O)NS(=O)(=O)Nc1ccc2c(c1)S(=O)(=O)NC(c1c(O)c3cccnc3n(CCC(C)C)c1=O)=N2	7.21
CC(C)CCn1c(=O)c(C2=NS(=O)(=O)c3cc(NS(=O)(=O)Nc4ccccc4)ccc3N2)c(O)c2cccnc21	7.39
CC(C)CCn1c(=O)c(C2=NS(=O)(=O)c3cc(OCC(=O)OC(C)(C)C)ccc3N2)c(O)c2cccnc21	5.30
Cc1cccc2c1N=C(c1c(O)c3cccnc3n(Cc3ccccc3)c1=O)NS2(=O)=O	5.17

SMILES	pIC50
CC(C)CCn1c(=O)c(C2=NS(=O)(=O)c3cc(NS(=O)(=O)NCCN)ccc3N2)c(O)c2cccnc21	8.00
O=c1c(C2=NS(=O)(=O)c3ccccc3N2)c(O)c2ccccc2n1NCc1ccccc1Br	5.17
O=c1c(C2=NS(=O)(=O)c3ccccc3N2)c(O)c2ccccc2n1NCc1ccccc1	5.29
CC(C)CCn1c(=O)c(C2=NS(=O)(=O)c3cc(OCC#N)ccc3N2)c(O)c2cccnc21	6.85
O=c1c(C2=NS(=O)(=O)c3ccccc3N2)c(O)c2ccccc2n1NCc1ccc(Cl)s1	5.32
COc1ccc2c(c1)S(=O)(=O)N=C(c1c(O)c3cccnc3n(CCC(C)C)c1=O)N2	5.95
O=c1c(C2=NS(=O)(=O)c3ccccc3N2)c(O)c2ccccc2n1NCc1ccoc1	5.81
CC(C)CCn1c(=O)c(C2=NS(=O)(=O)c3cc(NCC(N)=O)ccc3N2)c(O)c2cccnc21	6.33
CC(C)CCn1c(=O)c(C2=NS(=O)(=O)c3cc(NS(=O)(=O)NC(=O)OCC(=O)O)ccc3N2)c(O)c2cccnc21	7.30
C=CCOC(=O)NS(=O)(=O)Nc1ccc2c(c1)S(=O)(=O)N=C(c1c(O)c3cccnc3n(CCC(C)C)c1=O)N2	7.06
O=c1c(C2=NS(=O)(=O)c3ccccc3N2)c(O)c2ccccc2n1NCC1CCC1	6.56
CC(C)CCn1c(=O)c(C2=NS(=O)(=O)c3cc(NS(=O)(=O)N(C)C(=O)OCc4ccccc4)ccc3N2)c(O)c2cccnc21	6.92
CC(C)CCn1c(=O)c(C2=NS(=O)(=O)c3cc(NS(=O)(=O)NCCO)ccc3N2)c(O)c2cccnc21	6.97
CCCCNn1c(=O)c(C2=NS(=O)(=O)c3ccccc3N2)c(O)c2ccccc21	6.02
O=c1c(C2=NS(=O)(=O)c3ccccc3N2)c(O)c2ccccc2n1NCC1CCCCC1	5.60
CC(C)CCn1c(=O)c(C2=NS(=O)(=O)c3cc(NS(=O)(=O)Nc4cccc(C(N)=O)c4)ccc3N2)c(O)c2cccnc21	7.37
CC(C)CCn1c(=O)c(C2=NS(=O)(=O)c3cc(NS(=O)(=O)NC4CCCC4)ccc3N2)c(O)c2cccnc21	7.41
COC(=O)NS(=O)(=O)Nc1ccc2c(c1)S(=O)(=O)N=C(c1c(O)c3cccnc3n(CCC(C)C)c1=O)N2	7.20
CC(C)CCn1c(=O)c(C2=NS(=O)(=O)c3cc(NS(=O)(=O)Nc4cccc(C(=O)NCC(N)=O)c4)ccc3N2)c(O)c2cccnc21	7.37
O=c1c(C2=NS(=O)(=O)c3ccccc3N2)c(O)c2ccccc2n1NCC1CCCCCC1	5.98
CC(C)CCn1c(=O)c(C2=NS(=O)(=O)c3cc(OCC(=O)O)ccc3N2)c(O)c2cccnc21	6.44
